Assay [1] deals with PC-3M-Luc-C6 prostate cells. Put plainly: In vitro PC-3M-Luc-C6 prostate cell proliferation assay in lipid reduced medium. The class given is cell-based. As to conditions: 96 h, read-out: pIC50 PC-3M-Luc-C6 prostate cell (converted).
The target in assay [2] is T1, hFASN enzyme (full length) (Homo sapiens, UniProt P49327).
T1 construct: 10 μL hFASN enzyme (full length, 300 ng, purified in house); made in house
Put plainly: Fatty Acid Synthase (FASN) inhibition scintillation proximity assay. The class given is biochemical. The following applies: for inhibition at 10 µM: read-out: Human FASN % inhibition @ 10 μM, 10 μM test compound; for IC50: read-out: Human FASN pIC50 (converted). The method, boiled down: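 Full-length in-house purified enzyme (300 ng) was tested in 100 mM KH2PO4 pH 7.5, 1 mM DTT with ³H-acetyl-CoA and malonyl-CoA as substrates; compounds ranged 0.01–30 μM. Reactions were stopped with streptavidin imaging beads, read by LEADseeker at 610 nm, and fitted to a 4-parameter logistic curve.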
A general note: Scintillation proximity formats need no separation of bound from free tracer.

Assay [3] relates to LNCaP-Vancouver prostate cells. In words: In vitro LNCaP Vancouver prostate cell proliferation assay in lipid reduced medium. In kind it is cell-based. The following applies: read-out: pIC50 LNCaP_Vancouver prostate cell (converted).
For assay [4], the target named is Fatty Acid Synthase Keto-reductase Domain (FASN KR) (Homo sapiens, UniProt P49327). In words: Fatty Acid Synthase keto-reductase domain (FASN KR) inhibition, NADPH oxidation at 340 nm.
Procedure: After 20 minutes incubation at room temperature the plate was measured again (T2).
The decrease in absorbance was calculated as (Absorbance before incubation T1)−(Absorbance following incubation T2).
A plot of Controlmin versus test compound concentration was fitted to a 4-parameter logistic curve using a non-linear least squares regression method.
In assay [5] the test system is A2780 ovarian cells. In words: A2780 ovarian cell proliferation assay in lipid reduced medium, without palmitate (MTT). The class given is cell-based. As to conditions: Homo sapiens, A2780, 96 h; read-out: pIC50 A2780 Ovarian Cell, Without Palmitate (converted).
In assay [6] the test system is A2780 ovarian cells. In words: A2780 ovarian cell proliferation assay in lipid reduced medium, with palmitate (MTT). In kind it is cell-based. As to conditions: Homo sapiens, A2780, 96 h; read-out: pIC50 A2780 Ovarian Cell, With Palmitate (converted). The method, boiled down: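 Seeded cells were switched next day to lipid-reduced serum, exposed to compound and 25 μM palmitate complexed with fatty-acid-free BSA, and incubated 96 h. Proliferation was then determined by MTT absorbance at 544 nm, with a best-fit curve of signal against concentration.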

The structures appear in SMILES notation. Some results are limits rather than exact numbers.

T1 sequence (P49327 whole entry): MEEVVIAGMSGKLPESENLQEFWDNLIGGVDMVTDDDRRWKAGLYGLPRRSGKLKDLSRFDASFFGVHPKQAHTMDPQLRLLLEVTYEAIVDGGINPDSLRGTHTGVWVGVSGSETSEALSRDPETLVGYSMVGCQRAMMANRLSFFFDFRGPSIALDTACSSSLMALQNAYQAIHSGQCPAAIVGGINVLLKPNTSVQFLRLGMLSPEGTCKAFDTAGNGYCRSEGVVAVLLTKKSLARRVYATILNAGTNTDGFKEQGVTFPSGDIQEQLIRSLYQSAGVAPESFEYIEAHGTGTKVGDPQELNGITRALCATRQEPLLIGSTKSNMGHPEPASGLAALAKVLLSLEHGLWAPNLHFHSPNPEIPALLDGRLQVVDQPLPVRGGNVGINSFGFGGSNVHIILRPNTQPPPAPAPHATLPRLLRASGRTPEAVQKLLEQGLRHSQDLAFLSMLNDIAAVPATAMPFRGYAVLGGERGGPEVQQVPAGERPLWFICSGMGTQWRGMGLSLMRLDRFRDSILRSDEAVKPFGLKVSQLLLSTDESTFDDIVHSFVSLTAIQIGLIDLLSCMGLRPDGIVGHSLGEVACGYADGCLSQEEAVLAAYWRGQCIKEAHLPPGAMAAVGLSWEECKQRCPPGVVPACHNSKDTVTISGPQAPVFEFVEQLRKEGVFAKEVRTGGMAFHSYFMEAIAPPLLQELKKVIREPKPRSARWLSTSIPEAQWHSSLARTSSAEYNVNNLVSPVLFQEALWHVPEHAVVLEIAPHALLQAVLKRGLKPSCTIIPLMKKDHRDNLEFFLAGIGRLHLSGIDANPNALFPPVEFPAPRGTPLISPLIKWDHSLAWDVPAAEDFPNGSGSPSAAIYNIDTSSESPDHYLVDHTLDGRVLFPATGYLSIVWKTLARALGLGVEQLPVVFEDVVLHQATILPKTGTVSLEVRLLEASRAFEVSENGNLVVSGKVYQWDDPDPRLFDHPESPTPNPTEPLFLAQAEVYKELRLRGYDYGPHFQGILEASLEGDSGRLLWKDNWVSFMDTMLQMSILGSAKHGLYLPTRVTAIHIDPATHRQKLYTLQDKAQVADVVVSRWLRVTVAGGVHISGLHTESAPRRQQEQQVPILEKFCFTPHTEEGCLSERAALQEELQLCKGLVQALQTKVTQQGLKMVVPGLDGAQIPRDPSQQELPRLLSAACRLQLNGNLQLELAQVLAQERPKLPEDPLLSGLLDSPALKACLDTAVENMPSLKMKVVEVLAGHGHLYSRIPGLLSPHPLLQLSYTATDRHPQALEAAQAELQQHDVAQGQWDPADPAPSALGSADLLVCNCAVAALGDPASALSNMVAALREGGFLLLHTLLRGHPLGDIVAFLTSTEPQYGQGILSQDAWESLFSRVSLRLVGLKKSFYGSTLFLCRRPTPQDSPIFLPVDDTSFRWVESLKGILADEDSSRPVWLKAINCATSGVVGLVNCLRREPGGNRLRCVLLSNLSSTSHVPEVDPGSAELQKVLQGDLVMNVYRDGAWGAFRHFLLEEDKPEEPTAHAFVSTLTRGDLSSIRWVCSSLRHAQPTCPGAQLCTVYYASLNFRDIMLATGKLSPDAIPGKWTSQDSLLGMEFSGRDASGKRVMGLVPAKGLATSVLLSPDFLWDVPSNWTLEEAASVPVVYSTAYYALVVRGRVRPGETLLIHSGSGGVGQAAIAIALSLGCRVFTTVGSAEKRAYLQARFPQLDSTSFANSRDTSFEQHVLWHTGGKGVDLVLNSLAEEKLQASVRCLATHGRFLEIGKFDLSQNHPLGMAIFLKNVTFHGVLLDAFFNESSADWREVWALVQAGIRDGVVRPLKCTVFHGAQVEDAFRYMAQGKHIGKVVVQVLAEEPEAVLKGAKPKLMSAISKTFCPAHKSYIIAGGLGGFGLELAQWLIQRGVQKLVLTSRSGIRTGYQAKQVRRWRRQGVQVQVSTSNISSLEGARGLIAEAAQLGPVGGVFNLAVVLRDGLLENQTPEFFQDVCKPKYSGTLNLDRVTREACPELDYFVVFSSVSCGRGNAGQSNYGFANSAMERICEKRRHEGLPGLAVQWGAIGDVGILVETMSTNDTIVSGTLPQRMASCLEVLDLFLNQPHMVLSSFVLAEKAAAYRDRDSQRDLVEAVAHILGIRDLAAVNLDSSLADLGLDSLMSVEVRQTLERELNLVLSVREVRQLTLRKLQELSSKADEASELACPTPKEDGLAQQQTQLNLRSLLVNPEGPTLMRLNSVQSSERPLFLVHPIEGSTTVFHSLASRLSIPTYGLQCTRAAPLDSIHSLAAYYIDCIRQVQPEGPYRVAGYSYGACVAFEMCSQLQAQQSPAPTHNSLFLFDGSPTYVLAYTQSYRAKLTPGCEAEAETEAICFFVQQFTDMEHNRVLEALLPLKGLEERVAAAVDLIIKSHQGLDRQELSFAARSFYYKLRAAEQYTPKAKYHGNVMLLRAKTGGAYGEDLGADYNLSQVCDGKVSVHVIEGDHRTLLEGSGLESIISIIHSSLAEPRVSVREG
Sequence of Fatty Acid Synthase Keto-reductase Domain (FASN KR) (P49327 whole entry, the tested form may be a part): as the sequence (P49327 whole entry) above

The term inhibition denotes the relative decrease from the control value, in per cent. As for `CS(=O)(=O)N1CCC2(CC1)N=C(c1ccc(-c3ccc4occc4c3)cc1)N(C[C@@H]1CCN(C(=O)C3CC3)C1)C2=O` [compound 746, 2-[4-(1-Benzofuran-5-yl)phenyl]-3-{[(3R)-1-(cyclopropylcarbonyl)pyrrolidin-3-yl]methyl}-8-(methylsulfonyl)-1,3,8-triazaspiro[4.5]dec-1-en-4-one], the IC50 in assay [1] was approximately 1660 nM; in assay [2], 275 nM; in assay [3], approximately 3890 nM; in assay [4] it was 1070 nM; in assay [5], approximately 1860 nM; in assay [6], more than 10000 nM. Besides, in assay [2], the inhibition at 10 µM was 94%.

In the case of `COCCN1CCC2(CC1)N=C(c1ccc(-c3ccc4[nH]ccc4c3)cc1)N(C[C@@H]1CCN(C(=O)C3CC3)C1)C2=O` [compound 747, 3-{[(3R)-1-(Cyclopropylcarbonyl)pyrrolidin-3-yl]methyl}-2-[4-(1H-indol-5-yl)phenyl]-8-(2-methoxyethyl)-1,3,8-triazaspiro[4.5]dec-1-en-4-one], the IC50 in assay [1] is 57.5 nM; in assay [2], 85.1 nM; in assay [3], 631 nM; in assay [4] it was 129 nM; in assay [5] it was approximately 74.1 nM; in assay [6], more than 10000 nM. The inhibition at 10 µM in assay [2] came out at 96%.

Turning to `COCCN1CCC2(CC1)N=C(c1ccc(-c3ccc4[nH]ncc4c3)cc1)N(C[C@@H]1CCN(C(=O)C3CC3)C1)C2=O` [compound 748, 3-{[(3R)-1-(Cyclopropylcarbonyl)pyrrolidin-3-yl]methyl}-2-[4-(1H-indazxol-5-yl)phenyl]-8-(2-methoxyethyl)-1,3,8-trisazaspiro[4.5]dec-1-en-4-one], the IC50 in assay [1] is 575 nM; in assay [2] it was 355 nM; in assay [3] it was 3020 nM; in assay [4] it was 525 nM; in assay [5], approximately 224 nM; in assay [6] it was more than 10000 nM. Moreover, in assay [2], the inhibition at 10 µM came to 99%.

With `COCCN1CCC2(CC1)N=C(c1ccc(-c3ccc4c(cnn4C)c3)cc1)N(C[C@@H]1CCN(C(=O)C3CC3)C1)C2=O` [compound 750, 3-{[(3R)-1-(Cyclopropylcarbonyl)pyrrolidin-3-yl]methyl}-8-(2-methoxyethyl)-2-[4-(1-methyl-1H-indazol-5-yl)phenyl]-1,3,8-triazaspiro[4.5]dec-1-en-4-one], the IC50 in assay [1] is 589 nM; in assay [2] it was 309 nM; in assay [3], 3160 nM; in assay [4], 1150 nM; in assay [5], 676 nM; in assay [6] it was more than 10000 nM. In assay [2], the inhibition at 10 µM worked out at 94%.

As for `Cn1ncc2cc(-c3ccc(C4=NC5(CCN(C(=O)C(F)(F)F)CC5)C(=O)N4C[C@@H]4CCN(C(=O)C5CC5)C4)cc3)ccc21` [compound 752, 3-{[(3R)-1-(Cyclopropylcarbonyl)pyrrolidin-3-yl]methyl}-2-[4-(1-methyl-1H-indazol-5-yl)phenyl]-8-(trifluoroacetyl)-1,3,8-triazaspiro[4.5]dec-1-en-4-one], the IC50 in assay [1] was 1910 nM; in assay [2], 776 nM; in assay [3], 3980 nM; in assay [4], 1050 nM; in assay [5], 1620 nM; in assay [6] it was more than 10000 nM. Moreover, the inhibition at 10 µM in assay [2] stood at 91%.

Turning to `CS(=O)(=O)N1CCC2(CC1)N=C(c1ccc(-c3ccc4[nH]ccc4c3)cc1)N(CC1CN(C(=O)C3CC3)C1)C2=O` [compound 762, 3-{[1-(Cyclopropylcarbonyl)azetidin-3-yl]methyl}-2-[4-(1H-indol-5-yl)phenyl]-8-(methylsulfonyl)-1,3,8-triazaspiro[4.5]dec-1-en-4-one], the IC50 in assay [1] was 813 nM; in assay [2], 316 nM; in assay [3] it was 3890 nM; in assay [4], 759 nM; in assay [5], approximately 977 nM; in assay [6] it was more than 10000 nM. For the same compound, the inhibition at 10 µM in assay [2] turned out to be 95%.

With `O=C(C1CC1)N1CC(CN2C(=O)C3(CCN(C(=O)C(F)(F)F)CC3)N=C2c2ccc(-c3ccc4[nH]ccc4c3)cc2)C1` [compound 765, 3-{[1-(Cyclopropylcarbonyl)azetidin-3-yl]methyl}-2-[4-(1H-indol-5-yl)phenyl]-8-(trifluoroacetyl)-1,3,8-triazaspiro[4.5]dec-1-en-4-one], the IC50 in assay [1] was 2090 nM; in assay [2] it was 363 nM; in assay [3], 8910 nM; in assay [4], 832 nM; in assay [5], 2190 nM; in assay [6], more than 10000 nM. Besides, the inhibition at 10 µM in assay [2] was found to be 96%.

With `N#Cc1ccc2cc(-c3ccc(C4=NC5(CC5)C(=O)N4CC4CN(C(=O)C5(O)CC5)C4)c(F)c3)ccc2c1` [compound 872, 6-(3-fluoro-4-(6-((1-(1-hydroxycyclopropanecarbonyl)azetidin-3-yl)methyl)-7-oxo-4,6-diazaspiro[2.4]hept-4-en-5-yl)phenyl)-2-naphthonitrile], the IC50 in assay [1] is 4.79 nM; in assay [2] it was 23.4 nM; in assay [3], 24 nM; in assay [4], 42.7 nM; in assay [5] it was 2.69 nM; in assay [6] it was approximately 7940 nM. In addition, the inhibition at 10 µM in assay [2] amounted to 99%.

Take `O=C(C1CC1)N1CC[C@@H](CN2C(=O)C3(CCCC3)N=C2c2ccc(-c3ccc4cccnc4c3)cc2F)C1` [compound 875, (R)-3-((1-(cyclopropanecarbonyl)pyrrolidin-3-yl)methyl)-2-(2-fluoro-4-(quinolin-7-yl)phenyl)-1,3-diazaspiro[4.4]non-1-en-4-one]: the IC50 is 10.5 nM in assay [1]; 25.1 nM in assay [2]; 87.1 nM in assay [3]; 28.8 nM in assay [4]; 13.5 nM in assay [5]; more than 10000 nM in assay [6]. In addition, the inhibition at 10 µM in assay [2] was 104%.

Take `O=C(C1CC1)N1CC[C@@H](CN2C(=O)C3(CCCC3)N=C2c2ccc(-c3ccc4sccc4c3)cc2F)C1` [compound 876]: the IC50 in assay [1] was 120 nM; in assay [2], 30.9 nM; in assay [3], 617 nM; in assay [4], 36.3 nM; in assay [5], 229 nM; in assay [6], more than 10000 nM. For the same compound, in assay [2], the inhibition at 10 µM was 105%.

On to `O=C(C1CC1)N1CC[C@@H](CN2C(=O)C3(CCCC3)N=C2c2ccc(-c3ccc4[nH]cnc4c3)cc2F)C1` [compound 877, (R)-2-(4-(1H-benzo[d]imidazol-5-yl)-21-fluorophenyl)-3-((1-(cyclopropanecarbonyl)pyrrolidin-3-yl)methyl)-1,3-diazaspiro[4.4]non-1-en-4-one], for which the IC50 in assay [1] was 45.7 nM; in assay [2], 33.9 nM; in assay [3], approximately 407 nM; in assay [4] it was 74.1 nM; in assay [5], 21.4 nM; in assay [6] it was more than 10000 nM. Further, the inhibition at 10 µM in assay [2] was 103%.

Take `O=C(C1CC1)N1CC[C@@H](CN2C(=O)C3(CCCC3)N=C2c2ccc(-c3ccc4cn[nH]c4c3)cc2F)C1` [compound 879, (R)-3-((1-(cyclopropanecarbonyl)pyrrolidin-3-yl)methyl)-2-(2-fluoro-4-(1H-indazol-6-yl)phenyl)-1,3-diazaspiro[4.4]non-1-en-4-one]: the IC50 in assay [1] is 30.9 nM; in assay [2] it was 41.7 nM; in assay [3], 380 nM; in assay [4] it was 55 nM; in assay [5] it was 25.1 nM; in assay [6] it was more than 10000 nM. In addition, the inhibition at 10 µM in assay [2] came out at 104%.

Regarding `Cn1ncc2cc(-c3ccc(C4=NC5(CCCC5)C(=O)N4C[C@@H]4CCN(C(=O)C5CC5)C4)c(F)c3)ccc21` [compound 880, (R)-3-((1-(cyclopropanecarbonyl)pyrrolidin-3-yl)methyl)-2-(2-fluoro-4-(1-methyl-1H-indazol-5-yl)phenyl)-1,3-diazaspiro[4.4]non-1-en-4-one], the IC50 was 117 nM in assay [1]; 79.4 nM in assay [2]; 646 nM in assay [3]; 112 nM in assay [4]; 66.1 nM in assay [5]; more than 10000 nM in assay [6]. Also, the inhibition at 10 µM in assay [2] was found to be 101%.

Consider `Cc1cc(-c2ccc3c(c2)CCO3)ccc1C1=NC2(CCCC2)C(=O)N1C[C@@H]1CCN(C(=O)C2CC2)C1` [compound 884, (R)-3-((1-(cyclopropanecarbonyl)pyrrolidin-3-yl)methyl)-2-(4-(2,3-dihydrobenzofuran-5-yl)-2-methylphenyl)-1,3-diazaspiro[4.4]non-1-en-4-one], for which the IC50 in assay [1] is approximately 1820 nM; in assay [2], 288 nM; in assay [3] it was 3020 nM; in assay [4] it was 741 nM; in assay [5], approximately 2140 nM; in assay [6], more than 10000 nM. Also, in assay [2], the inhibition at 10 µM worked out at 100%.

These data come from patent US10077261B2, “Imidazolin-5-one derivative useful as FASN inhibitors for the treatment of cancer” (Janssen Pharmaceutica NV, priority 2012, dated 2018).
